Key:
KU812/SR = test: Cytotoxicity propidium iodide assay, KU812/SR; format: cell-based; conditions: Homo sapiens; KU812/SR (CML), 48 hours treatment; read-out: IC50 Values in μM, C6c
Protocol: (§1) The assay was designed as in the reference, Anticancer Drugs, 2002, 13, 1-8, the disclosure of which is incorporated herein by reference for the teaching of the assay.
(§2) Cells from cell lines (ATCC) as mentioned in the table given below were seeded at a density of 3000 cells/well in a white opaque 96-well plate. Following incubation at 37° C./5% CO2 for a period of 18-24 hours, the cells were treated with various concentrations (stock solution was prepared in DMSO and subsequent dilutions were made in media as per ATCC guidelines) of the compounds of the present invention for a period of 48 hours. At the end of treatment, the culture medium was discarded, the cells were washed with 1×PBS and 200 μL of […] propidium iodide was added to each well. The plates were frozen at 70° C. overnight. For analysis, the plates were warmed to RT, allowed to thaw and were read in PoleStar fluorimeter with the fluorescence setting. The percentage of viable cells in the non-treated set of wells was considered to be 100 and the percentage viability following treatment was calculated accordingly. IC50 values were calculated from graphs plotted using these percentages. IC50 values for certain compounds of present invention are depicted in Table 1 and % Inhibition of certain compounds of present invention are depicted in Table 2.

KCL22 = test: Cytotoxicity propidium iodide assay, KCL22; format: cell-based; conditions: Homo sapiens, KCL-22; KCL22 (CML), 48 hours treatment; read-out: IC50 Values in μM, C6f
Protocol: as §1
as §2, with “The plates were frozen at 70° C. overnight.” left out

KCL22/SR = test: Cytotoxicity propidium iodide assay, KCL22/SR; format: cell-based; conditions: Homo sapiens, KCL-22; KCL22/SR (CML), 48 hours treatment; read-out: IC50 Values in μM, C6e
Protocol: as §1, §2

A2780 = test: Cytotoxicity propidium iodide assay, A2780; format: cell-based; conditions: Homo sapiens; for IC50: A2780 (ovarian), 48 hours treatment, read-out: IC50 Values in μM, C1a
Protocol: as §1, §2

PC3 = test: Cytotoxicity propidium iodide assay, PC3; format: cell-based, human; conditions: Homo sapiens, PC-3; for IC50: PC3 (prostate), 48 hours treatment, read-out: IC50 Values in μM, C2a
Protocol: as §1, §2

T315I = test: Cytotoxicity propidium iodide assay, T315I; format: cell-based; conditions: T315I (CML), 48 hours treatment; read-out: IC50 Values in μM, C6b
Protocol: as §1, §2

K562 = test: Cytotoxicity propidium iodide assay, K562; format: cell-based; conditions: Homo sapiens; K562 (CML), 48 hours treatment; read-out: IC50 Values in μM, C6a
Protocol: as §1, §2

LN18 = test: Cytotoxicity propidium iodide assay, LN18; format: cell-based; conditions: Homo sapiens, LN-18; LN18 (glioblastoma), 48 hours treatment; read-out: IC50 Values in μM, C5b
Protocol: as §1, §2

PI3K/mTOR pathway = test: Western blot analysis in A2780 ovarian cancer cell line; format: cell-based; conditions: A2780 cells treated for 1 hour; FIG. 1A-1E
Protocol: Protocol for Western Blot Analysis
A2780 ovarian cancer cell line (ATCC) were grown to approximately 70% confluence in 100-mm tissue culture dishes and then treated for 1 hour with […] compounds of Example 2, 3, 5, 16, 19, 55 and 59. Total protein was extracted using cell lysis buffer (NaCl […], NP40 0.67%, Tris-Cl, pH 7.5, 67 mM) containing protease inhibitors and phosphatase inhibitors (Beta-glycerol phosphate 40 mM, DTT 1 mM, NaF 0.4 mM, Sodium-Orthovanadate 0.4 mM) at 4° C. for 1 hour. Cell lysates were then centrifuged at 2×10^4 g for 10 minutes at 4° C., and the protein concentration of the supernatant was quantified using the Bradford's method (BioRad, USA). For SDS-PAGE, 50 μg protein was loaded in SDS-PAGE, transferred to a polyvinylidene difluoride membrane (Bio-Rad, USA) and blocked with 5 mL buffer [5% skim milk and 0.1% Tween] for 1 hour 30 minutes. Membrane were probed with primary antibody (all primary antibodies were from cell signaling with 1:1000 in TBST solution) of respective protein at 4° C. overnight. Peroxidase-labeled anti-rabbit or anti-mouse antibodies (Santacruze, USA) were used as the secondary antibody. Actin and respective whole protein levels were used as the control for protein loading. Protein antigens were detected using Chemiluminescent Substrate (Thermo scientific, USA) and exposed on Kodak station.

MDA MB 231 = test: Cytotoxicity propidium iodide assay, MDA MB 231; format: cell-based; conditions: Homo sapiens; MDA MB 231 (breast), 48 hours treatment; read-out: IC50 Values in μM, C3a
Protocol: as §1
as §2, with “The plates were frozen at 70° C. overnight.” left out

LN229 = test: Cytotoxicity propidium iodide assay, LN229; format: cell-based; conditions: Homo sapiens, LN-229; LN229 (glioblastoma), 48 hours treatment; read-out: IC50 Values in μM, C5a
Protocol: as §1, §2

U 87 MG = test: Cytotoxicity propidium iodide assay, U 87 MG; format: cell-based; conditions: Homo sapiens; U 87 MG (glioblastoma), 48 hours treatment; read-out: IC50 Values in μM, C5c
Protocol: as §1
as §2, with “The plates were frozen at 70° C. overnight.” left out

MDA MB 468 = test: Cytotoxicity propidium iodide assay, MDA MB 468; format: cell-based; conditions: Homo sapiens; MDA MB 468 (breast), 48 hours treatment; read-out: IC50 Values in μM, C3b
Protocol: as §1, §2

AsPC 1 = test: Cytotoxicity propidium iodide assay, AsPC 1; format: cell-based; conditions: Homo sapiens, ASPC1; AsPC 1 (pancreatic), 48 hours treatment; read-out: IC50 Values in μM, C4b
Protocol: as §1
as §2, with “The plates were frozen at 70° C. overnight.” left out

BxPC3 = test: Cytotoxicity propidium iodide assay, BxPC3; format: cell-based; conditions: Homo sapiens, BXPC-3; BxPC3 (pancreatic), 48 hours treatment; read-out: IC50 Values in μM, C4c
Protocol: as §1, §2

BT 549 = test: Cytotoxicity propidium iodide assay, BT 549; format: cell-based; conditions: Homo sapiens; BT 549 (breast), 48 hours treatment; read-out: IC50 Values in μM, C3c
Protocol: as §1, §2

MCF7 = test: Cytotoxicity propidium iodide assay, MCF7; format: cell-based; conditions: Homo sapiens; MCF7 (breast), 48 hours treatment; read-out: IC50 Values in μM, C3d
Protocol: as §1, §2

hPBMC [1] = test: MTS toxicity assay in parallel to anti-CD3/anti-CD28 cytokine assay; format: cell-based, human; conditions: anti-CD3/anti-CD28 experiment
Protocol: (§3) hPBMC stimulation: Peripheral blood was collected from normal healthy volunteers after informed consent. Peripheral blood mononuclear cells (hPBMC) were harvested using Ficoll-Hypaque density gradient centrifugation (1.077 g/mL; Sigma Aldrich). hPBMCs were resuspended in RPMI 1640 culture medium (Gibco BRL, Pasley, UK) containing 10% FCS, 100 U/mL penicillin (Sigma Chemical Co. St Louis, Mo.) and […] streptomycin (Sigma Chemical Co. St Louis, Mo.) at 1.25×10^6 cells/mL of assay medium. 2.5×10^5 hPBMCs were added per well of 96-well plate coated with or without anti-CD3/anti-CD28 mAbs. Simultaneously, 0.025 μM of compounds of the present invention or 0.5% DMSO (vehicle control) were added to appropriate wells. The cells were then incubated for 18 hours at 37° C., 5% CO2 following which supernatants were collected, stored at […] and assayed later for TNF-α, IL-6 and IFN-γ by ELISA (OptiEIA ELISA sets; BD Biosciences). In every experiment, each condition was run in triplicate wells. In all experiments, the toxicity of test compounds was ascertained, in parallel, using the MTS (3-(4,5-dimethylthiazol-2-yl)-5-(3-carboxymethoxyphenyl)-2-(4-sulfonyl)-2H-tetrazolium) assay as described in Am. J. Physiol. Cell Physiol., 2003, 285, C813-C822.

hPBMC [2] = test: MTS toxicity assay in parallel to Con-A-induced IFN-γ assay; format: cell-based, human; conditions: Con-A experiment
Protocol: (§4) Peripheral blood was collected from normal healthy volunteers after informed consent. Peripheral blood mononuclear cells (hPBMC) were harvested using Ficoll-Hypaque density gradient centrifugation (1.077 g/mL; Sigma Aldrich). hPBMCs were resuspended in RPMI 1640 culture medium (Gibco BRL, Pasley, UK) containing 10% FCS, 100 U/mL penicillin (Sigma Chemical Co. St Louis, Mo.) and […] streptomycin (Sigma Chemical Co. St Louis, Mo.) at 1×10^6 cells/mL. 1×10^5 hPBMCs/well were pre-treated with 0.025 μM of compounds of present invention or 0.5% DMSO (vehicle control) for 30 minutes at 37° C. Subsequently, these cells were stimulated with 1 μg/mL concanavalin A (Sigma Chemical Co., St. Louis, Mo.). Following 18 hours of incubation at 37° C., supernatants were collected and stored at −70° C. until assayed for human IFN-γ by ELISA as described by the manufacturer (OptiEIA ELISA sets, BD BioSciences). In every experiment, cyclosporin (1 μM) was used as a positive control for inhibiting induced IFN-γ production. In all experiments, the toxicity of test compounds was ascertained, in parallel, using the MTS (3-(4,5-dimethylthiazol-2-yl)-5-(3-carboxymethoxyphenyl)-2-(4-sulfonyl)-2H-tetrazolium) assay as described in Am. J. Physiol. Cell Physiol., 2003, 285, C813-C822.

TNF-α = test: Anti-CD3 mAb and anti-CD28 mAb-induced cytokine production assay, TNF-α; format: cell-based; conditions: Homo sapiens, hPBMC, anti-CD3/anti-CD28, 18 hours
Protocol: (§5) Anti-CD3 mAb and Anti-CD28 mAb-Induced Cytokine Production Assay
(§6) Preparation of anti-CD3/anti-CD28 coated plates: 96 well plates were coated with goat anti-mouse IgG, Fc (Millipore) at a concentration of 16.5 μg/mL in coating buffer ([…] NaHCO3, 3.56 g Na2CO3, pH 9.5). Following overnight incubation at 4° C., the plates were washed and then incubated with anti-CD3 (3.5 μg/mL; R&D Systems) and anti-CD28 (35 ng/mL; R&D Systems) cocktail for 3 hours. Subsequently, the plates were washed, and used for hPBMC stimulation.
as §3

IFN-γ [3] = test: Con-A-induced IFN-γ production from hPBMC; format: cell-based; conditions: Homo sapiens, concanavalin A 1 μg/mL, 18 hours
Protocol: Con-A-Induced IFN-γ Production from hPBMC
as §4

IFN-γ [4] = test: Anti-CD3 mAb and anti-CD28 mAb-induced cytokine production assay, IFN-γ; format: cell-based; conditions: Homo sapiens, hPBMC, anti-CD3/anti-CD28, 18 hours
Protocol: as §5, §6, §3

IL-6 = test: Anti-CD3 mAb and anti-CD28 mAb-induced cytokine production assay, IL-6; format: cell-based; conditions: Homo sapiens, hPBMC, anti-CD3/anti-CD28, 18 hours
Protocol: as §5, §6, §3

Cn1c(=O)n(-c2ccc(C(C)(C)C#N)nc2)c2c3cc(-c4cccnc4)ccc3ncc21 [Example 1, 2-Methyl-2-(5-(3-methyl-2-oxo-8-(pyridin-3-yl)-2,3-dihydro-1H-imidazo[4,5-c]quinolin-1-yl)pyridin-2-yl)propanenitrile]
IC50 (KU812/SR): 0.96 µM | IC50 (KCL22): 1.18 µM | IC50 (KCL22/SR): 0.62 µM | IC50 (A2780): 0.4 µM | IC50 (PC3): 0.22 µM | IC50 (T315I): 3.3 µM | IC50 (K562): 0.9 µM

Cn1c(=O)n(-c2ccc(C(F)(F)F)nc2)c2c3cc(-c4cnc(N)c(C(F)(F)F)c4)ccc3ncc21 [Example 55, 8-(6-Amino-5-(trifluoromethyl)pyridin-3-yl)-3-methyl-1-(6-(trifluoromethyl)pyridin-3-yl)-1H-imidazo[4,5-c]quinolin-2(3H)-one]
IC50 (LN18): 0.282 µM | Akt, S6 and 4EBP1 phosphorylation (Western blot) (PI3K/mTOR pathway): inhibit Akt, S6 and 4EBP1 phosphorylation | IC50 (KU812/SR): 0.23 µM | IC50 (KCL22/SR): 0.06 µM | IC50 (MDA MB 231): 0.035 µM | IC50 (LN229): 0.096 µM | IC50 (U 87 MG): 7.92 µM | IC50 (MDA MB 468): 0.075 µM | IC50 (A2780): 0.009 µM | IC50 (AsPC 1): 0.04 µM | IC50 (PC3): 1.6 µM | IC50 (T315I): 0.19 µM | IC50 (BxPC3): 0.027 µM | IC50 (BT 549): 0.17 µM | IC50 (MCF7): 0.06 µM | IC50 (K562): 0.056 µM

Cn1c(=O)n(-c2ccc(C(F)(F)F)nc2)c2c3cc(-c4ccc(F)nc4F)ccc3ncc21 [Example 57, 8-(2,6-Difluoropyridin-3-yl)-3-methyl-1-(6-(trifluoromethyl)pyridin-3-yl)-1H-imidazo [4,5-c]quinolin-2(3H)-one]
% Toxicity at 0.025 μM (hPBMC [1]): 14% | % Toxicity at 0.025 μM (hPBMC [2]): 14% | inhibition at 0.025 µM (TNF-α): 80% | inhibition at 0.025 µM (IFN-γ [3]): 88% | inhibition at 0.025 µM (IFN-γ [4]): 88% | inhibition at 0.025 µM (IL-6): 94%

Cn1c(=O)n(-c2ccc(Cl)nc2Cl)c2c3cc(-c4cccnc4)ccc3ncc21 [Example 62, 1-(2,6-Dichloropyridin-3-yl)-3-methyl-8-(pyridin-3-yl)-1H-imidazo[4,5-c]quinolin-2(3H)-one]
IC50 (LN18): 1.08 µM | IC50 (KU812/SR): 0.84 µM | IC50 (KCL22/SR): 0.62 µM | IC50 (LN229): 1.03 µM | IC50 (U 87 MG): 9.92 µM | inhibition at 1 µM (A2780; A2780, 1 μM, 48 hours, read-out: % Inhibition at 1 μM, C1a): 69% | inhibition at 1 µM (PC3; PC3, 1 μM, 48 hours, read-out: % Inhibition at 1 μM, C2a): 28% | IC50 (BT 549): 1.5 µM | IC50 (K562): 0.144 µM

— patent US20130310374A1, “Substituted Imidazoquinoline Derivatives” (PIRAMAL ENTERPRISES LIMITED`, priority 2010, published 2013)
